Measured values reported in US9920383B2, “Active substances for increasing the stress defense in plants to abiotic stress, and methods of finding them” (Bayer Intellectual Property GMBH, priority 2005, dated 2018).

Experiments:
[1] = test system: Zm.11840.1.A1_at: putative N-carbamyl-L-amino acid amidohydrolase; assay: Gene expression profiling (maize genome array), heat stress; type: in vivo, maize cv. Lorenzo; conditions: vs unstressed solvent-dressed control
Procedure: (§1) Maize seeds cv. Lorenzo were dressed as described in example 1 with the compound VIII-3 (=4-cyclopropylaminocarbonyl-N-(2-methoxybenzoyl)benzenesulfonamide) or with solvent. The plants were raised for 10 days in a controlled-environment chamber (conditions: see example 1).
(§2) Thereafter, the plants were exposed to the following stress conditions: • (1) Heat stress: 6 h at 45° C. • (2) Drought stress: 7 days without irrigation, 24° C.
(§3) The control plants of the specific experimental group were kept under the standard conditions described in example 1 (temperature, irrigation).
(§4) After the stress treatment, the leaves of the stressed plants and of the unstressed control plants were harvested, shock-frozen in liquid nitrogen and stored at −80° C. until processed. All experiments were carried out in replications of in each case 2 pots.
(§5) The labeled RNA probes for the DNA chip hybridization were prepared as described in the protocols (Expression Analysis. Technical Manual) from Affymetrix (Affymetrix Inc., 3380 Central Expressway, Santa Clara, Calif., USA). First, total RNA was isolated from in each case 500 mg of the harvested leaves. In each case 10 μg of total RNA were used for the cDNA first- and second-strand synthesis. The cDNA was amplified with T7 polymerase and simultaneously labeled with biotin-UTP. In each case 20 μg of this biotinylated […] were employed for the hybridization of the maize genome array from Affymetrix. This DNA microarray contains DNA sequences whose totality represents 13339 genes. Thereafter, the DNA microarrays were washed in the Affymetrix Fluidics Station, stained with streptavidin/phycoerythrin (Molecular Probes, P/N S-866) and scanned with the appropriate Agilent Laser Scanner (Agilent Gene Array Scanner). The fluorescence data obtained were analyzed using Affymetrix's Microarray Suite 5 software. After the quality assurance had been performed, all DNA chip analyses were stored in a database. To determine relevant expression values (induction factors, repression factors), the absolute expression values of the genes from the respective stress experiments were compared with the values of the respective control experiments (i.e. without abiotic stress and solvent-dressing only), based on the scoring function predetermined by the Affymetrix software. The resulting 4 expression values per gene were averaged by calculating the median value. These median values are shown in the results tables as induction factors. Similarity comparisons of expression profiles of various experiments and cluster analyses were carried out using the “genedata expressionist” software from Genedata (Genedata, Maulbeerstr. 46, CH-4016 Basel, Switzerland).
(§6) The analysis of the expression profiles specifically searched for genes which are induced by the test substances only in conjunction with abiotic stress, but not by the substances or by stress alone. Such genes can be considered as indicators for additional anti-stress effects of the substances which exceed the known safener effect. The induction patterns of the indicator genes described permit the targeted finding of active substances for increasing the abiotic stress tolerance in crop plants. • a) Under heat stress conditions, i.e. the tested maize plants (dressed with 2 mg a.i. 4-cyclopropylaminocarbonyl-N-(2-methoxybenzoyl)benzenesulfonamide/g seeds) were exposed to a temperature of 45° C. for 6 hours 7 days after germination.
(§7) • Condition A: heat stress (6 hours, 45° C.) • Condition B: Seeds dressed with 4-cyclopropylaminocarbonyl-N-(2-methoxybenzoyl)benzenesulfonamide (VIII-3)/NO heat stress • Condition C: Seeds dressed with 4-cyclopropylaminocarbonyl-N-(2-methoxybenzoyl)benzenesulfonamide (VIII-3)+heat stress (6 hours, 45° C.).

[2] = test system: Zm18994.2.A1_at: putative serine transferase; assay: as above; type: in vivo, maize cv. Lorenzo; conditions: vs unstressed solvent-dressed control
Procedure: as §1, §2, §3, §4, §5, §6, §7

[3] = seeds dressed with VIII-3 (2 mg a.i./g seeds), NO heat stress
[4] = seeds dressed with VIII-3 + heat stress (6 hours, 45° C.)

COc1ccccc1C(=O)NS(=O)(=O)c1ccc(C(=O)NC2CC2)cc1 [VIII-3, 4-cyclopropylaminocarbonyl-N-(2-methoxybenzoyl)benzenesulfonamide]
induction factor Zm.11840.1.A1_at, Condition B [1, 3]: 1.75 | induction factor Zm.11840.1.A1_at, Condition C [1, 4]: 4.10 | induction factor Zm18994.2.A1_at, Condition B [2, 3]: 1.46 | induction factor Zm18994.2.A1_at, Condition C [2, 4]: 2.66
